Experimental data published in patent publication US11505569B2, “GalNAc phosphoramidites, nucleic acid conjugates thereof and their use” (Hoffmann-La Roche, Inc., priority 2014, dated 2022).
Strand notation (5' to 3'): a small letter for the sugar, then the base; units joined by * are phosphorothioate-linked, units joined directly phosphodiester-linked; [ ] holds rarer units or linkages, { } end groups; capitals alone tell only the bases. l = locked nucleic acid (LNA); [5mC] = 5-methylcytosine; d = 2'-deoxy (DNA)

System: ApoB mRNA
Test: Knock down of ApoB mRNA in vivo (qPCR on liver and kidney RNA)
Details: C57BL6/J mice, single sc dose 0.25 mg/kg GalNAc2 or equimolar amounts; for down regulation of ApoB mRNA in kidney: sacrificed at day 10, kidney, qPCR (FIG. 7B); for ApoB mRNA knock down in the liver: sacrificed at day 10, liver, qPCR (FIG. 7A)
Description: To compare the effect of different GalNAc constructs C57BL6/J mice were injected sc with a single dose saline or 0.25 mg/kg GalNAc2 cluster conjugated LNA-antisense oligonucleotide (GalNAc2) or equimolar amounts of LNA antisense oligonucleotides conjugated to the GalNAc constructs of the invention (FIGS. 6 E, I, M and N) or unconjugated LNA antisense oligonucleotide (see Example 2, table 1 for details) and sacrificed at days 10 where liver and kidney were isolated.
At sacrifice RNA was isolated from liver and kidney and subjected to qPCR with ApoB specific primers and probe to analyze for ApoB mRNA knockdown as described in the protocol below.
The animals were anaesthetised with 70% CO2-30% O2 and sacrificed by cervical dislocation. One half of the large liver lobe and one kidney were minced and submerged in RNAlater.
Total RNA was extracted from a maximum of 30 mg of tissue/sample, homogenized by bead-milling in the presence of lysis buffer (MagnaPure LC RNA Isolation Tissue buffer (#03604721001; Roche)) according to the manufacturer's instructions. The RNA was purified on a MagnaPure 96 System; Roche using Cellular RNA Large Volume Kit (#05467535001; Roche) using the manufacturer's standard protocol. First strand synthesis was performed using Reverse Transcriptase reagents from Ambion according to the manufacturer's instructions.
For each sample 0.5 μg total RNA was adjusted to (10.8 μl) with RNase free H2O and mixed with 2 μl random decamers (50 μM) and 4 μl dNTP mix (2.5 mM each dNTP) and heated to 70° C. for 3 min after which the samples were rapidly cooled on ice. 2 μl 10× Buffer RT, 1 μl MMLV Reverse Transcriptase (100 U/μl) and 0.25 μl RNase inhibitor (10 U/μl) were added to each sample, followed by incubation at 42° C. for 60 min, heat inactivation of the enzyme at 95° C. for 10 min and then the sample was cooled to 4° C. cDNA samples were diluted 1:5 and subjected to RT-QPCR using Taqman Fast Universal PCR Master Mix 2× (Applied Biosystems Cat #4364103) and Taqman gene expression assay (mApoB, Mn01545150_ml and mGAPDH #4352339E) following the manufacturers protocol and processed in an Applied Biosystems RT-qPCR instrument (7500/7900 or ViiA7) in fast mode.

| Substance | down regulation of ApoB mRNA in kidney | ApoB mRNA knock down in the liver |
| --- | --- | --- |
| Control: unconjugated oligonucleotide of SEQ ID NO: 1 (5′G^mCattggtatT^mCA-3′), without any GalNAc moieties attached (DNA GCATTGGTATTCA; LNA modifications, chemistry not fully specified) [reference compound] | higher |  |
| E: trivalent GalNAc construct, chain length 10, conjugated to oligonucleotide SEQ ID NO: 2 (5′ caG^mCattggtatT^mCA-3′) (antisense CAGCATTGGTATTCA; sugars from the 5' end d2 l2 d8 l3, [5mC] at 4, 14, backbone not given here; trivalent GalNAc conjugate, first linkages phosphodiester) | higher for the unconjugated LNA oligonucleotide (control) than for the GalNAc conjugated compounds | comparable effect on the target mRNA (ApoB mRNA) to the GalNAc2 cluster |
| GalNAc2: SEQ ID NO: 1 attached to the GalNAc2 cluster by a phospothioate group; SEQ ID NO: 20 in WO 2014/076196 (antisense lG*l[5mC]*dA*dT*dT*dG*dG*dT*dA*dT*lT*l[5mC]*lA; GalNAc2 cluster attached via phosphorothioate, end not given here) [reference compound] | higher for the unconjugated LNA oligonucleotide (control) than for the GalNAc conjugated compounds |  |
| I: trivalent GalNAc construct, chain length 16, conjugated to oligonucleotide SEQ ID NO: 2 (antisense CAGCATTGGTATTCA; sugars from the 5' end d2 l2 d8 l3, [5mC] at 4, 14, backbone not given here; trivalent GalNAc conjugate, first linkages phosphodiester) | higher for the unconjugated LNA oligonucleotide (control) than for the GalNAc conjugated compounds | comparable effect on the target mRNA (ApoB mRNA) to the GalNAc2 cluster |
| M: trivalent GalNAc construct with spacer, chain length 16, conjugated to oligonucleotide SEQ ID NO: 2 (antisense CAGCATTGGTATTCA; sugars from the 5' end d2 l2 d8 l3, [5mC] at 4, 14, backbone not given here; further chemistry not fully specified) | higher for the unconjugated LNA oligonucleotide (control) than for the GalNAc conjugated compounds | comparable effect on the target mRNA (ApoB mRNA) to the GalNAc2 cluster |
| N: trivalent GalNAc construct with spacer, chain length 30, conjugated to oligonucleotide SEQ ID NO: 2 (antisense CAGCATTGGTATTCA; sugars from the 5' end d2 l2 d8 l3, [5mC] at 4, 14, backbone not given here; further chemistry not fully specified) | higher for the unconjugated LNA oligonucleotide (control) than for the GalNAc conjugated compounds | comparable effect on the target mRNA (ApoB mRNA) to the GalNAc2 cluster |
